Measurements from article PMC9254149 (RSC Advances, 2022).

How the values were obtained:
Format in all cases: cell-based, human
[1] = Cell viability by CCK-8 method; conditions: human, HepG2 cells
[2] = tested on: HepG2 cells; experiment: Cell viability by CCK-8 method; conditions: Homo sapiens, HepG2, 24 h, read-out: IC50 (cell viability)
[3] = tested on: IR-HepG2 cells; experiment: Glucose consumption in IR-HepG2 cells; conditions: 24 h

SMILES: CC(C)=CCCC(C)(O)C(O)CCC(C)CCO (stereo not drawn) [Compound 3, 2,6,10-trimethyl-6,7,12-trihydroxy-dodec-2-ene]
- viability at 24 h, 10 µM [1]: 94.8 ± 1.94%
- viability at 24 h, 20 µM [1]: 83.5 ± 3.68%
- viability at 24 h, 30 µM [1]: 60.3 ± 3.33%
- viability at 24 h, 40 µM [1]: 36.3 ± 1.62%
- viability at 24 h, 50 µM [1]: 33.4 ± 1.9%
- IC50 [2]: 34 µM
- Glucose consumption ([3]; 2.5 μM): 2.06 ± 1.27 mM
- Glucose consumption ([3]; 5.0 μM): 2.43 ± 0.67 mM
- Glucose consumption ([3]; 10.0 μM): 2.66 ± 0.56 mM
- Glucose consumption ([3]; 12.5 μM): 2.86 ± 0.71 mM
- Glucose consumption ([3]; 15 μM): 2.44 ± 0.60 mM

SMILES: C[C@@H]1O[C@@H](O[C@H]2[C@H](O[C@H]3CC[C@@]4(C)[C@@H](CC[C@]5(C)[C@@H]4CC=C4[C@@H]6CC(C)(C)CC[C@]6(C(=O)O)CC[C@]45C)[C@]3(C)CO)OC[C@H](O)[C@@H]2O)[C@H](O)[C@H](O)[C@H]1O [Compound 5, α-hederin]
- viability at 24 h, 10 µM [1]: 98.57 ± 0.57%
- viability at 24 h, 20 µM [1]: 93.4 ± 1.23%
- viability at 24 h, 30 µM [1]: 89.4 ± 1.16%
- viability at 24 h, 40 µM [1]: 76.1 ± 1.73%
- viability at 24 h, 50 µM [1]: 73.3 ± 2.58%
- IC50 [2]: > 50 µM
- Glucose consumption ([3]; 2.5 μM): 6.31 ± 0.96 mM
- Glucose consumption ([3]; 10.0 μM): 7.75 ± 0.84 mM
- Glucose consumption ([3]; 12.5 μM): 8.97 ± 0.37 mM
- Glucose consumption ([3]; 15 μM): 9.99 ± 0.95 mM
